Test results taken from patent US8962530B2, “Inflammatory bowel disease therapies” (Regents of the University of Colorado, priority 2007, dated 2015).

Experiments:
TNBS-induced colitis [1] = experiment: Weight loss in TNBS-colitis model; format: in vivo; details: TNBS-colitis mice; for initial body weight loss: compared to vehicle-control treated TNBS-colitis animals; for average body weight (of initial body weight) at day 3: vehicle-treated approximately 92%
Description: The effectiveness of compounds and methods of the present invention on intestinal barrier protection and treatment of inflammatory bowel disease (IBD) in TNBS (2,4,6-trinitrobenzene sulfonic acid)-induced colitis, an established animal model of inflammatory bowel disease, was examined. TNBS-induced colitis was induced in mice using a modification of techniques previously described. (See Morris et al (1989) Gastroenterology 96:795-803; Boirivant et al (1998) J Exp Med 188:1929-1939; Karhausen et al (2004) J Clin Invest 114:1098-1106.) Mice were shaved on the abdomen (causing total depletion of hair and microlesions) and were then sensitized to subsequent treatment by epicutaneous application of 1% TNBS (Sigma-Aldrich) in 100% ethanol on day minus 7. Seven days later, on day 0, animals were sedated with a 2.5% Tribromoethanol solution in phosphate-buffered saline (14 μl/g body weight), followed by intrarectal administration of a 2.5% TNBS solution in 50% ethanol (5 μl/g body weight). Administration of the 2.5% TNBS solution was carried out using an epidural catheter ([…] Plus Epidural Catheter, Arrow International), which was inserted approximately 6 cm ab ano followed by release of the TNBS solution. To ensure the continuance of the TNBS solution in the colon, mice were suspended in a vertical position for at least 5 minutes following administration. Vehicle control animals received a corresponding volume of 50% ethanol solution alone. Unless otherwise indicated, compounds of the invention were administered to animals intraperitoneally (i.p.) as a solution. Animals were dosed with compound (40 mg/kg/day or 20 mg/kg/day) on day minus 1, day 0, and day 1, or exclusively on day 0 and day 1, by i.p. injection. On day 0, TNBS treatment was performed on animals 4 hours after injection of compound. The effect of methods and compounds of the present invention on weight loss associated with inflammatory bowel disease was studied using an established animal model of colitis (described above in Example 1). Monitoring weight loss is a reliable method to assess TNBS-colitis severity in this animal model, as previously described. (See Neurath et al (2000) Int Rev Immunol 19:51-62.) Animals were administered Compound A (20 mg/kg or 40 mg/kg, i.p.) or vehicle control on day minus 1, day 0, and day 1. TNBS-colitis was induced in mice on day 0, as described above in Example 1. Body weight of the mice was monitored following induction of TNBS-colitis. […] Animal body weight was monitored each day for 3 days.

TNBS-induced colitis [2] = experiment: Intestinal permeability, Texas Red labeled LPS, TNBS-colitis model; format: in vivo; details: TNBS-colitis mice; 60 mg/kg i.p.; labeled LPS gavage after 20 hours, serum four hours later; compared to vehicle control
Description: The effectiveness of compounds and methods of the present invention on intestinal barrier protection and treatment of inflammatory bowel disease (IBD) in TNBS (2,4,6-trinitrobenzene sulfonic acid)-induced colitis, an established animal model of inflammatory bowel disease, was examined. TNBS-induced colitis was induced in mice using a modification of techniques previously described. (See Morris et al (1989) Gastroenterology 96:795-803; Boirivant et al (1998) J Exp Med 188:1929-1939; Karhausen et al (2004) J Clin Invest 114:1098-1106.) Mice were shaved on the abdomen (causing total depletion of hair and microlesions) and were then sensitized to subsequent treatment by epicutaneous application of 1% TNBS (Sigma-Aldrich) in 100% ethanol on day minus 7. Seven days later, on day 0, animals were sedated with a 2.5% Tribromoethanol solution in phosphate-buffered saline (14 μl/g body weight), followed by intrarectal administration of a 2.5% TNBS solution in 50% ethanol (5 μl/g body weight). Administration of the 2.5% TNBS solution was carried out using an epidural catheter ([…] Plus Epidural Catheter, Arrow International), which was inserted approximately 6 cm ab ano followed by release of the TNBS solution. […] Four hours later, changes in intestinal permeability were determined by measurement of serum Texas Red labeled LPS levels.

[3] = 20 mg/kg i.p. on day minus 1, day 0, day 1
[4] = 40 mg/kg i.p. on day minus 1, day 0, day 1

O=C(O)CNC(=O)c1ncc2cc(Sc3ccccc3)ccc2c1O [Compound A, [(4-Hydroxy-7-phenylsulfanyl-isoquinoline-3-carbonyl)-amino]-acetic acid]
initial body weight loss (TNBS-induced colitis [1]; [3]): reduction in the extent of initial body weight loss | average body weight (of initial body weight) at day 3 (TNBS-induced colitis [1]; [3]): approximately 95% | body weight gain (recovery from weight loss) by day 3 (TNBS-induced colitis [1]; 20 mg/kg or 40 mg/kg i.p. on day minus 1, day 0, day 1, compared to vehicle/control-treated TNBS-colitis animals): greater increase in body weight gain | initial body weight loss (TNBS-induced colitis [1]; [4]): reduction in the extent of initial body weight loss | average body weight (of initial body weight) at day 3 (TNBS-induced colitis [1]; [4]): ~97% | serum Texas Red labeled LPS levels (intestinal permeability) (TNBS-induced colitis [2]): lower levels of serum Texas Red labeled LPS
